Data reported in patent EP1027361B1, “6,11-BRIDGED ERYTHROMYCIN DERIVATIVES” (Abbott Laboratories, priority 1997, dated 1999).

Tests used:
Test in all cases: in vitro antibacterial activity, agar dilution MIC
Format in all cases: cell-based
[1] = system: Mycobacterium smegmatis ATCC 114; parameters: unit not given here; conditions: organism code UU, BHI agar, 35-37 °C, 20 to 24 hours
Protocol: (§1) Representative compounds of the present invention were assayed in vitro for antibacterial activity as follows: Twelve petri dishes containing successive aqueous dilutions of the test compound mixed with 10 mL of sterilized Brain Heart Infusion (BHI) agar (Difco 0418-01-5) were prepared. Each plate was inoculated with 1:100 (or 1:10 for slow-growing strains, such as Micrococcus and Streptococcus) dilutions of up to 32 different microorganisms, using a Steers replicator block. […] In addition, a control plate, using BHI agar containing no test compound, was prepared and incubated at the beginning and end of each test
(§2) An additional plate containing a compound having known susceptibility patterns for the organisms being tested and belonging to the same antibiotic class as the test compound was also prepared and incubated as a further control, as well as to provide test-to-test comparability.
(§3) After incubation, each plate was visually inspected. The minimum inhibitory concentration (MIC) was defined as the lowest concentration of drug yielding no growth, a slight haze, or sparsely isolated colonies on the inoculum spot as compared to the growth control.

[2] = system: Staphylococcus aureus A5177; parameters: unit not given here; conditions: organism code BB, BHI agar, 35-37 °C, 20 to 24 hours
Protocol: as §1, §2, §3

[3] = system: Nocardia Asteroides ATCC9970; conditions: organism code VV, BHI agar, 35-37 °C, 20 to 24 hours
Protocol: (§4) Erythromycin A was used for this purpose.
(§5) After incubation, each plate was visually inspected.

[4] = system: Streptococcus Pheumoniae 5649; conditions: organism code ZZA, BHI agar, 35-37 °C, 20 to 24 hours
Protocol: as §4, §5

Escherichia coli SS = conditions: organism code RR, BHI agar, 35-37 °C, 20 to 24 hours
Protocol: as §4, §5

[5] = system: Staphylococcus aureus CMX 553; conditions: organism code FF, BHI agar, 35-37 °C, 20 to 24 hours
Protocol: as §4, §5

[6] = system: Haemophilis Influenzae DILL AMP R; conditions: organism code WW, BHI agar, 35-37 °C, 20 to 24 hours
Protocol: as §4, §5

[7] = system: Streptococcus Pheumoniae GYR 1171; conditions: organism code YY, BHI agar, 35-37 °C, 20 to 24 hours
Protocol: as §4, §5

Escherichia coli JUHL = conditions: organism code QQ, BHI agar, 35-37 °C, 20 to 24 hours
Protocol: as §4, §5

[8] = system: Enterococcus faecium ATCC 8043; conditions: organism code II, BHI agar, 35-37 °C, 20 to 24 hours
Protocol: as §4, §5

[9] = system: Micrococcus luteus ATCC 4698; conditions: organism code PP, BHI agar, 35-37 °C, 20 to 24 hours
Protocol: as §4, §5

[10] = system: Staphylococcus aureus NCTC10649M; conditions: organism code EE, BHI agar, 35-37 °C, 20 to 24 hours
Protocol: as §4, §5

[11] = system: Staphylococcus epidermidis 3519; conditions: organism code HH, BHI agar, 35-37 °C, 20 to 24 hours
Protocol: as §4, §5

[12] = system: Micrococcus luteus ATCC 9341; conditions: organism code OO, BHI agar, 35-37 °C, 20 to 24 hours
Protocol: as §4, §5

[13] = system: Staphylococcus aureus CMX 642A; conditions: organism code DD, BHI agar, 35-37 °C, 20 to 24 hours
Protocol: as §4, §5

[14] = system: Streptococcus bovis A-5169; parameters: unit not given here; conditions: organism code JJ, BHI agar, 35-37 °C, 20 to 24 hours
Protocol: as §4, §5

[15] = system: Streptococcus agalactiae CMX 508; parameters: unit not given here; conditions: organism code KK, BHI agar, 35-37 °C, 20 to 24 hours
Protocol: as §4, §5

[16] = system: Streptococcus Pheumoniae ATCC6303; parameters: unit not given here; conditions: organism code XX, BHI agar, 35-37 °C, 20 to 24 hours
Protocol: as §4, §5

[17] = system: Staphylococcus aureus ATCC 6538P; parameters: unit not given here; conditions: organism code AA, BHI agar, 35-37 °C, 20 to 24 hours
Protocol: as §4, §5

[18] = system: Streptococcus pyogenes EES61; parameters: unit not given here; conditions: organism code LL, BHI agar, 35-37 °C, 20 to 24 hours
Protocol: as §4, §5

[19] = system: Streptococcus pyogenes PIU 2548; conditions: organism code NN, BHI agar, 35-37 °C, 20 to 24 hours
Protocol: as §1, §2, §3

[20] = system: Streptococcus pyogenes 930; conditions: organism code MM, BHI agar, 35-37 °C, 20 to 24 hours
Protocol: as §1, §2, §3

[21] = system: Staphylococcus aureus 1775; conditions: organism code GG, BHI agar, 35-37 °C, 20 to 24 hours
Protocol: as §1, §2, §3

Escherichia coli DC-2 = conditions: organism code SS, BHI agar, 35-37 °C, 20 to 24 hours
Protocol: as §1, §2, §3

[22] = system: Streptococcus Pheumoniae 5979; conditions: organism code ZZ, BHI agar, 35-37 °C, 20 to 24 hours
Protocol: as §1, §2, §3

Candida albicans CCH 442 = conditions: organism code TT, BHI agar, 35-37 °C, 20 to 24 hours
Protocol: as §1, §2, §3

[23] = system: Staphylococcus aureus A-5278; conditions: organism code CC, BHI agar, 35-37 °C, 20 to 24 hours
Protocol: as §1, §2, §3

## CC[C@H]1OC(=O)[C@H](C)[C@@H](O[C@H]2C[C@@](C)(OC)[C@@H](O)[C@H](C)O2)[C@H](C)[C@@H](O[C@@H]2O[C@H](C)C[C@H](N(C)C)[C@H]2O)[C@@]2(C)C[C@@H](C)C(=O)[C@H](C)[C@H]3N(CCC=CCO2)C(=O)O[C@]13C [Example 17, Compound of Formula (I), R^p is H, m is 2, A is absent, B is absent, D is absen, E is-(CH2)r-CH=CH-, r is 0, n is 1]
[1]
  minimum inhibitory concentration (MIC): 0.2
[2]
  minimum inhibitory concentration (MIC): 6.2
[3]
  minimum inhibitory concentration (MIC): 0.02
[4]
  minimum inhibitory concentration (MIC): 8
Escherichia coli SS
  minimum inhibitory concentration (MIC): 0.78
[5]
  minimum inhibitory concentration (MIC): 0.1
[6]
  minimum inhibitory concentration (MIC): 8
[7]
  minimum inhibitory concentration (MIC): 0.015
Escherichia coli JUHL
  minimum inhibitory concentration (MIC): >100
[8]
  minimum inhibitory concentration (MIC): 0.05
[9]
  minimum inhibitory concentration (MIC): 0.1
[10]
  minimum inhibitory concentration (MIC): 0.2
[11]
  minimum inhibitory concentration (MIC): 0.2
[12]
  minimum inhibitory concentration (MIC): 0.02
[13]
  minimum inhibitory concentration (MIC): 0.2
[14]
  minimum inhibitory concentration (MIC): 0.01
[15]
  minimum inhibitory concentration (MIC): 0.01
[16]
  minimum inhibitory concentration (MIC): 0.015
[17]
  minimum inhibitory concentration (MIC): 0.1
[18]
  minimum inhibitory concentration (MIC): 0.02
[19]
  minimum inhibitory concentration (MIC): 25
[20]
  minimum inhibitory concentration (MIC): >100
[21]
  minimum inhibitory concentration (MIC): >100
Escherichia coli DC-2
  minimum inhibitory concentration (MIC): >100
[22]
  minimum inhibitory concentration (MIC): >128
Candida albicans CCH 442
  minimum inhibitory concentration (MIC): >100
[23]
  minimum inhibitory concentration (MIC): >100

## CC[C@H]1OC(=O)[C@H](C)C(=O)[C@H](C)[C@@H](O[C@@H]2O[C@H](C)C[C@H](N(C)C)[C@H]2O)[C@@]2(C)C[C@@H](C)C(=O)[C@H](C)[C@H]3N(CCC=CCO2)C(=O)O[C@]13C [Example 18, Compound of Formula (II), R^p is H, m is 2, A is absent, B is absent, D is absent, E is-(CH2)r-CH=CH-, r is 0, n is 1]
[1]
  minimum inhibitory concentration (MIC): 12.5
[2]
  minimum inhibitory concentration (MIC): 0.78
[3]
  minimum inhibitory concentration (MIC): 0.78
[4]
  minimum inhibitory concentration (MIC): 2
Escherichia coli SS
  minimum inhibitory concentration (MIC): 1.56
[5]
  minimum inhibitory concentration (MIC): 0.78
[6]
  minimum inhibitory concentration (MIC): 128
[7]
  minimum inhibitory concentration (MIC): 0.5
Escherichia coli JUHL
  minimum inhibitory concentration (MIC): >100
[8]
  minimum inhibitory concentration (MIC): 0.39
[9]
  minimum inhibitory concentration (MIC): 0.78
[10]
  minimum inhibitory concentration (MIC): 0.78
[11]
  minimum inhibitory concentration (MIC): 1.56
[12]
  minimum inhibitory concentration (MIC): 0.39
[13]
  minimum inhibitory concentration (MIC): 0.78
[14]
  minimum inhibitory concentration (MIC): 0.2
[15]
  minimum inhibitory concentration (MIC): 0.2
[16]
  minimum inhibitory concentration (MIC): 1
[17]
  minimum inhibitory concentration (MIC): 0.78
[18]
  minimum inhibitory concentration (MIC): 0.2
[19]
  minimum inhibitory concentration (MIC): 1.56
[20]
  minimum inhibitory concentration (MIC): >100
[21]
  minimum inhibitory concentration (MIC): >100
Escherichia coli DC-2
  minimum inhibitory concentration (MIC): >100
[22]
  minimum inhibitory concentration (MIC): >128
Candida albicans CCH 442
  minimum inhibitory concentration (MIC): >100
[23]
  minimum inhibitory concentration (MIC): >100

## CC[C@H]1OC(=O)[C@H](C)[C@@H](O[C@H]2C[C@@](C)(OC)[C@@H](O)[C@H](C)O2)[C@H](C)[C@@H](O[C@@H]2O[C@H](C)C[C@H](N(C)C)[C@H]2O)[C@@]2(C)C[C@@H](C)C(=O)[C@H](C)[C@H]3N(CC(O)CC=CCO2)C(=O)O[C@]13C (stereo partly drawn) [Example 19, Compound of Formula (I), R^p is H, m is 1, A is absent, B is -CHOH-(CH2)q-, q is 1, D is absent, E is -(CH2)r-CH=CH-, r is 0, n is 1]
[1]
  minimum inhibitory concentration (MIC): 0.39
[2]
  minimum inhibitory concentration (MIC): 3.1
[3]
  minimum inhibitory concentration (MIC): 0.05
[4]
  minimum inhibitory concentration (MIC): 16
Escherichia coli SS
  minimum inhibitory concentration (MIC): 0.78
[5]
  minimum inhibitory concentration (MIC): 0.78
[6]
  minimum inhibitory concentration (MIC): 8
[7]
  minimum inhibitory concentration (MIC): 0.03
Escherichia coli JUHL
  minimum inhibitory concentration (MIC): 25
[8]
  minimum inhibitory concentration (MIC): 0.1
[9]
  minimum inhibitory concentration (MIC): 0.78
[10]
  minimum inhibitory concentration (MIC): 0.78
[11]
  minimum inhibitory concentration (MIC): 0.78
[12]
  minimum inhibitory concentration (MIC): 0.05
[13]
  minimum inhibitory concentration (MIC): 0.78
[14]
  minimum inhibitory concentration (MIC): 0.02
[15]
  minimum inhibitory concentration (MIC): 0.05
[16]
  minimum inhibitory concentration (MIC): 0.03
[17]
  minimum inhibitory concentration (MIC): 0.39
[18]
  minimum inhibitory concentration (MIC): 0.05
[19]
  minimum inhibitory concentration (MIC): 12.5
[20]
  minimum inhibitory concentration (MIC): >100
[21]
  minimum inhibitory concentration (MIC): >100
Escherichia coli DC-2
  minimum inhibitory concentration (MIC): >100
[22]
  minimum inhibitory concentration (MIC): >128
Candida albicans CCH 442
  minimum inhibitory concentration (MIC): >100
[23]
  minimum inhibitory concentration (MIC): >100
